Literature values in US20200390726A1, “Compositions for Improved Neuroprotective Effects and Methods of Making Same” (Guardion Health Sciences, LLC, priority 2019, published 2020).

System: glaucoma patients
Settings: literature, anthocyanins 50 mg daily, PEA 600 mg per day, Mirtogenol dose not given

CCCCCCCCCCCCCCCC(=O)NCCO [PEA, Palmitoylethanolamide]
effect on visual field (citicoline 500 to 1,000 mg daily): improvement in the visual field | effect on intraocular pressure (IOP) (forskolin 1% eye drops): lowering of IOP
